Patent publication US20260098026A1, “M4 ACTIVATORS/MODULATORS AND USES THEREOF” (Cerevel Therapeutics, LLC, priority 2022, published 2026)

What was measured:
[1] = target: T1, M3 muscarinic acetylcholine receptor (mAChR) (Homo sapiens, UniProt P20309); assay: FLIPR calcium assay (Fluo 8), M3-overexpressing CHO-K1 cells; type: cell-based
T1 construct: expressed in transfected cells; host or cells: CHO-K1
Procedure: Stimulation of a Gq-coupled G-protein coupled receptors (GPCRs), result in an efflux of calcium from the endoplasmic reticulum to the cytoplasm (Berridge, 1993), thus rendering this assay appropriate for the assessment of M1, M3 and M5 receptors. CHO-K1 cells overexpressing the M1, M3, or M5 muscarinic acetylcholine receptor (mAChR) were dispensed at 15,000 cells per well in 30 μl volume to 384-well plates and grown overnight at 37° C. in a 5% CO2 atmosphere. Fluo-8 Solution, 10 μl per well, was added to each well and incubated for 30 minutes at 37° C. in a 5% CO2 atmosphere. Compounds diluted in Hanks' balanced salt solution (HBSS) were transferred to the cell assay plate at 10 μl per well, and then read on a FLIPR instrument. EC50 and Emax figures were calculated from the resulting data for each receptor subtype.

M4 mAChR = target: T2, M4 mAChR (Homo sapiens, UniProt P08173); assay: cAMP TR-FRET assay with forskolin, M4-overexpressing CHO-K1 cells; type: cell-based
T2 construct: expressed in transfected cells; host or cells: CHO-K1
T2 sequence (P08173 1-479): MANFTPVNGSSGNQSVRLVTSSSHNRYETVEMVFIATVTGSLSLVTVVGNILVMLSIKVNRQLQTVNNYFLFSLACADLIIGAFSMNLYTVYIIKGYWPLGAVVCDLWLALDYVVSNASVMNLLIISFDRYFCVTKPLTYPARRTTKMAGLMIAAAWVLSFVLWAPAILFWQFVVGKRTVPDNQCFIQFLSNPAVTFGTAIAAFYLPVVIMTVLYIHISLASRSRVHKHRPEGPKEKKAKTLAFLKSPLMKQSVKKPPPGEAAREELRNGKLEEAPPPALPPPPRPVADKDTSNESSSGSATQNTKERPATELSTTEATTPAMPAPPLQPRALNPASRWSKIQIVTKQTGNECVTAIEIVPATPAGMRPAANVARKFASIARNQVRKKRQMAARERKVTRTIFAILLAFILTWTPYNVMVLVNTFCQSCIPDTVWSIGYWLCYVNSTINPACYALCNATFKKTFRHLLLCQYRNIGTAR
Source text: The M2 and M4 mACh receptors are Gi-coupled receptors which, upon activation, produce a decrease in cAMP. Assays were developed that measured the potency and efficacy of compounds at the M2 or M4 mAChR using M2- or M4-overexpressing CHO-K1 cell lines. Time-resolved fluorescence resonance energy transfer (TR-FRET) technology was used, where signal occurs as a result of transfer of energy if the donor molecule is in close proximity to an acceptor molecule when the molecules have bound to the molecule of interest. The cAMP detection is a competition binding assay, where cAMP produced by cells competes for binding with the labeled donor molecule to the anti-cAMP acceptor antibody. Due to the low basal levels of cAMP in the CHO-K1 cell line, forskolin was used to increase cAMP levels to enable assessment of agonist activity at the mAChR of interest.

T1 sequence (P20309 whole entry): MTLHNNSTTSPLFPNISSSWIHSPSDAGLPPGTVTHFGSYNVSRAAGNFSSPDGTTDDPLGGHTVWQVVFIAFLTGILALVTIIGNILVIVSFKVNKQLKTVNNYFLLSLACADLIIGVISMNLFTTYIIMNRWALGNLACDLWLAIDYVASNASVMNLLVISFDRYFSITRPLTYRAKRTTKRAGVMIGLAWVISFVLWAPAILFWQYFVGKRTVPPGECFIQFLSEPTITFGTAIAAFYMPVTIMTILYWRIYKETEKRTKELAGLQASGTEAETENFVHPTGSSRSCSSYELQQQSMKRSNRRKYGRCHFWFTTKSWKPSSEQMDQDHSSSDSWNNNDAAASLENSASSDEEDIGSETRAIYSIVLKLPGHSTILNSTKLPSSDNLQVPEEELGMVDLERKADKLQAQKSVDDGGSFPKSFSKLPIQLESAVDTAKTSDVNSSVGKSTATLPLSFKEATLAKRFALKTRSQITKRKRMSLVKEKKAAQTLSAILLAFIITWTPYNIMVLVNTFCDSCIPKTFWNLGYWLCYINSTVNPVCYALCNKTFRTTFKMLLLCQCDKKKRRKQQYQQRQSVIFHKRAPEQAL

SMILES | EC50 ([1]; FLIPR calcium) [µM] | Emax (M4 mAChR; cAMP TR-FRET with forskolin) [%] | EC50 ([1]; FLIPR) [µM] | Emax (M4 mAChR; cAMP assay) [%]
CCOC(=O)N1CC2(CC[C@@H](N3CCN(c4cc(Cl)cnc4C4CCOCC4)CC3)C2)C1 (single isomer, unassigned) [Compound A15] | > 10 | 80 to 100 | – | –
CCOC(=O)N1CC2(CC(N3[C@@H]4CC[C@H]3CN(c3cc(F)cnc3-c3cnccn3)C4)CS2)C1 (single isomer, unassigned) [Compound A219] | – | – | > 10 | < 19
CCOC(=O)N1CC2(CCC(N3[C@@H]4CC[C@H]3CN(c3cc(F)cnc3-c3cnccn3)C4)C2)C1 (single isomer, unassigned) [Compound A223] | – | – | > 10 | 80 to 100
CCOC(=O)N1CC2(CC[C@@H](N3CCN(c4cc(F)cnc4-c4cnccn4)CC3)C2)C1 [Compound A6, (R)-ethyl 6-(4-(5-fluoro-2-(pyrazin-2-yl)pyridin-3-yl)piperazin-1-yl)-2-azaspiro[3.4]octane-2-carboxylate] | > 10 | 80 to 100 | – | –
CCOC(=O)N1CC2(CC[C@@H](N3CCN(c4cc(F)cnc4NC4CCOCC4)CC3)C2)C1 [Compound A9, ethyl (6R)-6-[4-[5-fluoro-2-(tetrahydropyran-4-ylamino)-3-pyridyl]piperazin-1-yl]-2-azaspiro[3.4]octane-2-carboxylate] | > 10 | 80 to 100 | – | –
CCOC(=O)N1CC2(CC[C@@H](N3CCN(c4cc(F)cnc4-n4cc(C)cn4)CC3)C2)C1 [Compound A10, ethyl (6R)-6-[4-[5-fluoro-2-(4-methylpyrazol-1-yl)-3-pyridyl]piperazin-1-yl]-2-azaspiro[3.4]octane-2-carboxylate] | > 10 | 80 to 100 | – | –
CCOC(=O)N1CC2(CC[C@@H](N3CCN(c4cccnc4-c4cncc(C)c4)CC3)C2)C1 [Compound A25] | > 10 | 80 to 100 | – | –
CCOC(=O)N1CC2(CC[C@@H](N3CCN(c4cccnc4-c4cncc(F)c4)CC3)C2)C1 [Compound A26] | > 10 | 80 to 100 | – | –
CCOC(=O)N1CC2(CC[C@@H](N3CCN(c4cc(F)cnc4-c4ccc(C#N)nc4)CC3)C2)C1 [Compound A29] | > 10 | 80 to 100 | – | –
CCOC(=O)N1CC2(CC[C@@H](N3CCN(c4cc(F)cnc4-c4ccnc5[nH]ccc45)CC3)C2)C1 [Compound A30] | > 10 | 80 to 100 | – | –
CCOC(=O)N1CC2(CC[C@@H](N3CCN(c4cc(F)cnc4-c4cncc(C)c4)CC3)C2)C1 [Compound A31] | > 10 | 80 to 100 | – | –
CCOC(=O)N1CC2(CC[C@@H](N3CCN(c4cc(F)cnc4-c4cccc(O)c4)CC3)C2)C1 [Compound A32] | > 10 | 80 to 100 | – | –
CCOC(=O)N1CC2(CC[C@@H](N3CCN(c4cc(F)cnc4-c4ccc5nn(C)cc5c4)CC3)C2)C1 [Compound A33] | > 10 | 80 to 100 | – | –
CCOC(=O)N1CC2(CC[C@@H](N3CCN(c4cc(F)cnc4-c4ccc(CO)cc4)CC3)C2)C1 [Compound A34] | > 10 | 80 to 100 | – | –
CCOC(=O)N1CC2(CC[C@@H](N3CCN(c4cc(F)cnc4-c4cnccc4C)CC3)C2)C1 [Compound A35] | > 10 | 80 to 100 | – | –
CCOC(=O)N1CC2(CC[C@@H](N3CCN(c4cc(F)cnc4-c4cncc(OC)c4)CC3)C2)C1 [Compound A36] | > 10 | 80 to 100 | – | –
CCOC(=O)N1CC2(CC[C@@H](N3CCN(c4cc(F)cnc4-c4cccnc4)CC3)C2)C1 [Compound A37] | > 10 | 80 to 100 | – | –
CCOC(=O)N1CC2(CC[C@@H](N3CCN(c4cc(F)cnc4-c4cnn(CCOC)c4)CC3)C2)C1 [Compound A38] | > 10 | 80 to 100 | – | –
CCOC(=O)N1CC2(CC[C@@H](N3CCN(c4cc(F)cnc4-c4ccnc(C)n4)CC3)C2)C1 [Compound A254] | – | – | > 10 | –
CCOC(=O)N1CC2(CC[C@@H](N3CCN(c4cc(F)cnc4-c4cnn(C(C)C)n4)CC3)C2)C1 [Compound A257] | – | – | > 10 | –
CCOC(=O)N1CC2(CC[C@@H](N3CCC(c4cc(F)cnc4-c4ccc(F)cn4)CC3)C2)C1 [Compound A292] | – | – | > 10 | –
